Drawing on patent US20240124442A1, “TRICYCLIC-AMIDO-BICYCLIC PRMT5 INHIBITORS” (AMGEN INC., priority 2021, published 2024), this text covers IC50 for 14 compounds.

Usually pIC50 stands for the IC50 on a negative log10 scale, so that one unit is a factor of ten.

The structures appear in SMILES notation. pIC50: −log10 of the molar value.

One assay has as its system HCT116 MTAP null cells. Briefly: HCT116 MTAP null cell line proliferation / cell viability (CellTiter-Glo, 6 days). The format is cell-based. Particulars: 144 h; HCT116 MTAP null cells, 6 days treatment, CellTiter-Glo cell viability; read-out: HCT-116 MTAP null IC50. The procedure:
(§1) HCT116 Proliferation Activity
(§2) To assess selective anti-proliferative activity of compounds of the invention in cells that have loss expression of MTAP, an HCT-116 isogenic cell line pair was utilized where one cell line was engineered to genetically knockout both MTAP alleles. Cell viability was then assessed in both the parent HCT-116 cell line and the MTAP null cell line after 6 days of treatment with compounds of the present invention. Selective anti-proliferative activity in the MTAP null cell line indicates MTA-cooperative inhibition of PRMT5 and ability to inhibit growth of cancer cells that have loss of MTAP.
(§3) HCT116 MTAP null and WT cells were seeded in 96-well tissue culture plates in RPMI 1640 media+10% fetal bovine serum. Plates were incubated overnight at 37° C. and 5% CO2. Cells were then treated with an 8- or 9-point serial dilution of compound, using a top concentration of 1, or 10 μM, 1:3 serial dilution steps and, a DMSO-only control. Cells were incubated in the presence of drug for 6 days. Effects on cell viability were measured with the CellTiter-Glo® Luminescent Cell Viability Assay (Promega) per manufacturer's recommendation. Assay plates were read on an EnVision™ Multilabel Reader using the Ultra-Sensitive luminescence module. IC50 values were calculated with GraphPad Prism v 5.01 using symmetrical sigmoidal dose-response least squares fit with Hill slope fixed to −1 and top constrain to 100% or GeneData Screener using a 4-parameter logistic model to fit dose response curves.
(§4) Alternatively, compounds could be assayed with a 384 well plate format:
(§5) Compounds were pre-spotted into 384 well plates with a 22-point serial dilution of compound, using a top concentration of 10 or 50 μM, 1:2 serial dilution steps and, a DMSO-only control. HCT116 MTAP null and WT cells were then seeded as above and after 6 days effects on cell viability were measured with the CellTiter-Glo® Luminescent Cell Viability Assay (Promega). Assay plates were read as above and IC50 values were calculated with GeneData Screener using a 4-parameter logistic model to fit dose response curves. The reported IC50 represents the value where the curve transits 50% of control.

The next assay concerns HCT116 WT cells. Briefly: HCT116 WT (parent) cell line proliferation / cell viability (CellTiter-Glo, 6 days). The format is cell-based. The settings on record: Homo sapiens, HCT-116, 144 h, 6 days treatment. As to the method:
as §1, §2, §3, §4, §5
For orientation: Cellular ATP, detected with luciferase, serves as a proxy for viable cell number.

Consider `C[C@@H]1OCc2c(N)nc3ccc(C(=O)N(C)C4COc5cc(C(F)(F)F)ccc54)cc3c21` (mixture of isomers) [Example 205, (1R)-4-amino-N,1-dimethyl-N-((3S)-6-(trifluoromethyl)-2,3-dihydro-1-benzofuran-3-yl)-1,3-dihydrofuro[3,4-c]quinoline-8-carboxamide and (1S)-4-amino-N,1-dimethyl-N-((3S)-6-(trifluoromethyl)-2,3-dihydro-1-benzofuran-3-yl)-1,3-dihydrofuro[3,4-c]quinoline-8-carboxamide], for which the negative logarithm of the IC50 (pIC50) is 6.44 in the assay on HCT116 MTAP null cells and 4.91 in the assay on HCT116 WT cells.

`CN=S(C)(=O)c1ccc2c(c1)OC[C@H]2N(C)C(=O)c1ccc2nc(N)c3c(c2c1)COC3` (mixture of isomers) [Example 447, 4-amino-N-((3S)-6-((R)-N,S-dimethylsulfonimidoyl)-2,3-dihydro-1-benzofuran-3-yl)-N-methyl-1,3-dihydrofuro[3,4-c]quinoline-8-carboxamide and 4-amino-N-((3S)-6-((S)-N,S-dimethylsulfonimidoyl)-2,3-dihydro-1-benzofuran-3-yl)-N-methyl-1,3-dihydrofuro[3,4-c]quinoline-8-carboxamide]: the pIC50 in the assay with HCT116 MTAP null cells is 6.14; in the assay on HCT116 WT cells, 4.60.

For `CN=S(C)(=O)c1ccc2c(c1)OC[C@H]2N(C)C(=O)c1cc2c3c(c(N)nc2cn1)COC3` (mixture of isomers) [Example 456, 4-amino-N-((3S)-6-((R)-N,S-dimethylsulfonimidoyl)-2,3-dihydro-1-benzofuran-3-yl)-N-methyl-1,3-dihydrofuro[3,4-c][1,7]naphthyridine-8-carboxamide and 4-amino-N-((3S)-6-((S)-N,S-dimethylsulfonimidoyl)-2,3-dihydro-1-benzofuran-3-yl)-N-methyl-1,3-dihydrofuro[3,4-c][1,7]naphthyridine-8-carboxamide], the pIC50 with HCT116 MTAP null cells is 6.07; in the assay on HCT116 WT cells, 4.62.

Consider `CN(C(=O)c1cc2c3c(c(N)nc2cc1F)COC3)[C@@H]1COc2cc(C(F)(F)F)cnc21` (mixture of isomers) [Example 461, 4-amino-7-fluoro-N-methyl-N-((3R)-6-(trifluoromethyl)-2,3-dihydrofuro[3,2-b]pyridin-3-yl)-1,3-dihydrofuro[3,4-c]quinoline-8-carboxamide and 4-amino-7-fluoro-N-methyl-N-((3S)-6-(trifluoromethyl)-2,3-dihydrofuro[3,2-b]pyridin-3-yl)-1,3-dihydrofuro[3,4-c]quinoline-8-carboxamide], for which the negative-log IC50 (pIC50) in the assay on HCT116 MTAP null cells was 6.06; in the assay on HCT116 WT cells it was 4.42.

For `CN=S(C)(=O)c1ccc2c(c1)OC[C@H]2N(C)C(=O)c1cc2c3c(c(N)nc2cc1F)COC3` (mixture of isomers) [Example 463, 4-amino-N-((3S)-6-((R)-N,S-dimethylsulfonimidoyl)-2,3-dihydro-1-benzofuran-3-yl)-7-fluoro-N-methyl-1,3-dihydrofuro[3,4-c]quinoline-8-carboxamide and 4-amino-N-((3S)-6-((S)-N,S-dimethylsulfonimidoyl)-2,3-dihydro-1-benzofuran-3-yl)-7-fluoro-N-methyl-1,3-dihydrofuro[3,4-c]quinoline-8-carboxamide], the pIC50 in the assay with HCT116 MTAP null cells was 6.87; in the assay on HCT116 WT cells, 4.83.

On to `CN(C(=O)c1ccc2nc(N)c3c(c2c1)COC3)C1COc2cc(C#N)ccc21` (racemic) [Example 201, 4-amino-N-((3R)-6-cyano-2,3-dihydro-1-benzofuran-3-yl)-N-methyl-1,3-dihydrofuro[3,4-c]quinoline-8-carboxamide and 4-amino-N-((3S)-6-cyano-2,3-dihydro-1-benzofuran-3-yl)-N-methyl-1,3-dihydrofuro[3,4-c]quinoline-8-carboxamide], for which the pIC50 is 6.83 with HCT116 MTAP null cells and 5.24 with HCT116 WT cells.

On to `CN(C(=O)c1ccc2nc(N)c3c(c2c1)COC3)C1COc2cc(Br)ccc21` (racemic) [Example 203, 4-amino-N-((3R)-6-bromo-2,3-dihydro-1-benzofuran-3-yl)-N-methyl-1,3-dihydrofuro[3,4-c]quinoline-8-carboxamide and 4-amino-N-((3S)-6-bromo-2,3-dihydro-1-benzofuran-3-yl)-N-methyl-1,3-dihydrofuro[3,4-c]quinoline-8-carboxamide], for which the negative-log IC50 (pIC50) in the assay with HCT116 MTAP null cells is 7.03; in the assay on HCT116 WT cells, 5.34.

For the compound `N#CCN(C(=O)c1cc2c3c(c(N)nc2cn1)COC3)C1COc2cc(C(F)(F)F)ccc21` (racemic) [Example 208, 4-amino-N-(cyanomethyl)-N-((3R)-6-(trifluoromethyl)-2,3-dihydro-1-benzofuran-3-yl)-1,3-dihydrofuro[3,4-c][1,7]-naphthyridine-8-carboxamide and 4-amino-N-(cyanomethyl)-N-((3S)-6-(trifluoromethyl)-2,3-dihydro-1-benzofuran-3-yl)-1,3-dihydrofuro[3,4-c][1,7]-naphthyridine-8-carboxamide], the pIC50 in the assay on HCT116 MTAP null cells is 6.26; in the assay with HCT116 WT cells it was 4.78.

As for `CN(C(=O)c1cc2c3c(c(N)nc2cc1F)COC3)C1c2ccc(C(F)(F)F)nc2CC1(C)C` (racemic) [Example 213, 4-amino-N-((5R)-6,6-dimethyl-2-(trifluoromethyl)-6,7-dihydro-5H-cyclopenta[b]-pyridin-5-yl)-7-fluoro-N-methyl-1,3-dihydrofuro[3,4-c]-quinoline-8-carboxamide and 4-amino-N-((5S)-6,6-dimethyl-2-(trifluoromethyl)-6,7-dihydro-5H-cyclopenta[b]-pyridin-5-yl)-7-fluoro-N-methyl-1,3-dihydrofuro[3,4-c]-quinoline-8-carboxamide], the pIC50 with HCT116 MTAP null cells was 6.44; with HCT116 WT cells, 4.89.

Take `CN(C(=O)c1cc2c3c(c(N)nc2cc1F)COC3)C1c2ccc(C(F)(F)F)nc2CC1(F)F` (racemic) [Example 215, 4-amino-N-((5R)-6,6-difluoro-2-(trifluoromethyl)-6,7-dihydro-5H-cyclopenta[b]-pyridin-5-yl)-7-fluoro-N-methyl-1,3-dihydrofuro[3,4-c]-quinoline-8-carboxamide and 4-amino-N-((5S)-6,6-difluoro-2-(trifluoromethyl)-6,7-dihydro-5H-cyclopenta[b]pyridin-5-yl)-7-fluoro-N-methyl-1,3-dihydro-furo[3,4-c] quinoline-8-carboxamide]: the results for the pIC50 with HCT116 MTAP null cells and in the assay on HCT116 WT cells were 6.37 and 4.82, respectively.

`CN(C(=O)c1ccc2nc(N)c3cnn(C)c3c2c1)C1COc2ncc(C(F)(F)F)cc21` (racemic) [Example 226, 4-amino-N,1-dimethyl-N-((3R)-5-(trifluoromethyl)-2,3-dihydrofuro[2,3-b]pyridin-3-yl)-1H-pyrazolo[4,3-c]quinoline-8-carboxamide and 4-amino-N,1-dimethyl-N-((3S)-5-(trifluoromethyl)-2,3-dihydro-furo[2,3-b]pyridin-3-yl)-1H-pyrazolo[4,3-c]quinoline-8-carboxamide]: the pIC50 in the assay on HCT116 MTAP null cells is 7.42; with HCT116 WT cells, 5.67.

As to `CCN(C(=O)c1ccc2nc(N)c3cnn(C)c3c2c1)C1COc2cc(C(F)(F)F)ccc21` (racemic) [Example 228, 4-amino-N-ethyl-1-methyl-N-((3R)-6-(trifluoromethyl)-2,3-dihydro-1-benzofuran-3-yl)-1H-pyrazolo[4,3-c]quinoline-8-carboxamide and 4-amino-N-ethyl-1-methyl-N-((3S)-6-(trifluoromethyl)-2,3-dihydro-1-benzofuran-3-yl)-1H-pyrazolo[4,3-c]quinoline-8-carboxamide], the pIC50 was 8.15 in the assay on HCT116 MTAP null cells and 6.17 in the assay with HCT116 WT cells.

On to `CN(C(=O)c1ccc2nc(N)c3cnn(C)c3c2c1)C1c2ccc(C(F)(F)F)nc2CC1(F)F` (racemic) [Example 233, 4-amino-N-((5R)-6,6-difluoro-2-(trifluoromethyl)-6,7-dihydro-5H-cyclopenta[b]pyridin-5-yl)-N,1-dimethyl-1H-pyrazolo[4,3-c]quinoline-8-carboxamide and 4-amino-N-((5S)-6,6-difluoro-2-(trifluoromethyl)-6,7-dihydro-5H-cyclopenta[b]pyridin-5-yl)-N,1-dimethyl-1H-pyrazolo[4,3-c]quinoline-8-carboxamide], for which the negative-log IC50 (pIC50) with HCT116 MTAP null cells was 6.14; in the assay on HCT116 WT cells, 4.72.

As for `CN(C(=O)c1cc2c(cc1F)nc(N)c1cnn(C)c12)C1COc2nc(C(F)(F)F)ccc21` (racemic) [Example 242, 4-amino-7-fluoro-N,1-dimethyl-N-((3R)-6-(trifluoromethyl)-2,3-dihydrofuro[2,3-b]pyridin-3-yl)-1H-pyrazolo[4,3-c]-quinoline-8-carboxamide and 4-amino-7-fluoro-N,1-dimethyl-N-((3S)-6-(trifluoromethyl)-2,3-dihydrofuro[2,3-b]pyridin-3-yl)-1H-pyrazolo[4,3-c]-quinoline-8-carboxamide], the pIC50 with HCT116 MTAP null cells is 8.30; in the assay on HCT116 WT cells, 6.27.
